# Tests used:
# Format in all cases: cell-based, human
# FKHR = test: Confirmation of LPS results by immunoblotting, MDA MB-231 cells
# Description: (§1) The proteins affected by pentamer, as detected by LPS, were analyzed further by immunoblotting. Antibodies against the following proteins were used: Cdc2 (Tyr15), FKHR (Ser256), p53 (Ser37, Ser46 and Ser392), PKC-δ (Ser643), PKC-θ (Ser643/676), pRb (Ser795 and Ser807/811), SAPK/JNK (Thr183/Tyr185) and Stat 5 (Tyr694) (all antibodies were obtained from Cell Signaling).
# (§2) Protein pellets from pentamer-treated MDA MB-231, MDA MB-468 and MCF-7 cells and corresponding DMSO-treated controls were lysed in PBS with 1% SDS and sonicated for 15 seconds at a power of five watts. Samples were then centrifuged at 10,000 rpm and supernatants transferred into clean tubes. Protein concentration was determined as descried above. Ten jig of each protein sample was separated by PAGE on 4-20% gradient gels (BioRad, Philadelphia, Pa.). Gels were either transferred to PVDF membranes (BioRad) or P-FILM membrane (stacks of 10 membranes) according to the manufacturer's instructions (20/20 Gene Systems). PVDF membranes were blocked for 1 hour in 0.5% casein solution (Vector Laboratories, Burlingame, Calif.), prior to incubation with primary antibodies. […] The membranes were incubated overnight at 4° C. in 1:500 dilutions of primary antibodies, washed three times in TBST for five minutes, incubated in HRP-conjugated secondary antibodies, washed again and incubated in ECL Plus Reagent (Amersham). Signals were visualized on BIOMAX MR film (Kodak, Rochester, N.Y.). Following incubation with primary antibodies, membranes were incubated in anti-GAPDH antibody (1:500 dilution; Chemicon, Temecula, Calif.). The presence of this protein was visualized with secondary antibody conjugated to alkaline phosphatase DuoLux substrate (Vector Laboratories).
# (§3) As a control, the PVDF membranes probed for Cdc2, FKHR, p53, and pRb were stripped according to manufacturer's instructions (Cell Signaling). After striping, membranes were washed four times for five minutes each in TBST buffer, blocked as described above, washed again and incubated in primary antibodies overnight at 4° C. The primary antibodies used were anti-total Cdc2 (1:1000 dilution, Cell Signaling), anti-total FKHR (1:1000 dilution, Cell Signaling), anti-endogenous p53 (1:1000, Cell Signaling) and anti-endogenous pRb (1:1000, Santa Cruz). The next day, membranes were washed and incubated in HRP conjugated secondary antibodies, washed again and incubated in ECL Plus Reagent (Amersham). Signals were detected as previously described. To test equality of loading, membranes were probed with anti-GAPDH antibody (1:500 dilution; Chemicon, Temecula, Calif.) as described above.
# Cdc2 = test: as above
# Description: as §1, §2, §3
# pRb [1] = test: as above
# Description: as §1, §2, §3
# p53 [2] = test: as above
# Description: as §1, §2, §3
# p53 [3] = test: High resolution profiling (P-FILM) of p53 in MDA MB-468 cells; settings: 100 μg/mL
# Description: (§4) Both p53 and pRb contain multiple phosphorylation sites, and evaluating each site separately provides a more accurate indication of each protein's potential function. Therefore, a high resolution functional profiling of the proteins was performed using P-FILM technology (20/20 Gene Systems, Inc.).
# (§5) The same protein samples as those used for PDVF membrane blotting were used. Ten μg of each protein sample of MDA MB-231 cells, and in some cases MDA MB-468 and MCF-7 cells, treated with 100 μg /mL of pentamer or DMSO-treated controls, were separated by PAGE on 4-20% gradient gels (BioRad). Proteins were transferred on a stack of ten membranes, according to manufacturer's instructions (20/20 Gene Systems, Inc.). The membranes were probed with antibodies recognizing total and phosphorylated p53 (p53Ser6, Ser9, Ser15, Ser20, Ser37, Ser46 and Ser392) at 1:1000 dilution as recommended by the manufacturer (Cell Signaling). The secondary antibody used in all cases was anti-rabbit polyclonal 1:2000 (Amersham). Signals were visualized on BIOMAX MR film (Kodak). The profiling of pRb was done using anti-phospho pRb (Ser780, Ser 795 and Ser 807/811) and anti-pRb polyclonal antibody (Cell Signaling) at a 1:1000 dilution. The secondary antibody used in all cases was anti-rabbit at 1:2000 dilution (Amersham). Image analysis was performed with Kodak 1D image analysis software. Background corrected intensity values were normalized for loading by using GAPDH intensities. Numerical analysis was performed in Excel.
# PARP = PARP cleavage in MDA MB-231 cells; settings: 48 hours treatment
# Text: Rabbit polyclonal poly (ADP-ribose) polymerase (PARP) (H-250) was obtained from Santa Cruz Biotechnology Inc., (Santa Cruz, Calif.). α-Tubulin antibody was obtained from Neomarkers, Fremont, Calif. All antibodies used for proteomics analysis were obtained from Cell Signaling (Beverly, Mass.), Upstate Biotechnology (Lake Placid, N.Y.), Neomarkers (Fremont, Calif.) and Santa Cruz (Santa Cruz, Calif.) (Table 2). Referring to Table 2, Abs designated as “mouse” were monoclonal Abs, and Abs designated as “rabbit” were polyclonal Abs. The ECL detection reagent was obtained from Amersham (Arlington Heights, Ill.).
# To determine whether depolarization of the mitochondrial membrane, induced by pentamer leads to apoptotic cellular death in human breast cancer cells lines, MDA MB-231 and MCF-7 cells were examined for PARP cleavage products. Since PARP is one of the downstream substrates of the caspase cascade, it is an excellent marker of apoptosis [Soldani, C. et al., Apoptosis, 7: 321-328, 2002].
# pRb [4] = test: High resolution profiling (P-FILM) of pRb in MDA MB-231 cells; settings: 100 μg/mL, 48 and 72 hours
# Description: as §4
# as §5, with “Background corrected intensity values were normalized for loading by using GAPDH intensities. Numerical analysis was performed in Excel.” left out
# [5] = LPS analysis and PVDF membrane experiments
structure (smiles),measurement,setting,value
"Oc1cc(O)c2c(c1)O[C@H](c1ccc(O)c(O)c1)[C@H](O)[C@H]2c1c(O)cc(O)c2c1O[C@H](c1ccc(O)c(O)c1)[C@H](O)[C@H]2c1c(O)cc(O)c2c1O[C@H](c1ccc(O)c(O)c1)[C@H](O)[C@H]2c1c(O)cc(O)c2c1O[C@H](c1ccc(O)c(O)c1)[C@H](O)[C@H]2c1c(O)cc(O)c2c1O[C@H](c1ccc(O)c(O)c1)[C@H](O)C2 [pentamer, pentameric procyanidin]",total protein expression of FKHR,FKHR; [5],not affected
same,effect on phosphorylated form of FKHR (Ser256),"FKHR; immunoblot, 48 and 72 hrs",had an effect
same,total protein expression of Cdc2,Cdc2; [5],not affected
same,effect on phosphorylated form of Cdc2 (Tyr15),"Cdc2; immunoblot, 48 and 72 hrs",had an effect
same,"pRb, both total and phospho-specific sites",pRb [1]; PVDF membrane reprobed,affected
same,effect on phosphorylated form of pRb (Ser795 and Ser807/811),"pRb [1]; immunoblot, 48 and 72 hr",had an effect
same,total protein expression of p53,p53 [2]; [5],not affected
same,"effect on phosphorylated form of p53 (Ser37, Ser46 and Ser392)","p53 [2]; immunoblot, 72 hrs",had an effect
same,"percentage of p53 phosphorylated at Ser392 decreased, compared to untreated controls",p53 [3]; MD MB-468,33%
same,expression of endogenous p53,p53 [3]; MDA MB-468,not significantly affected
same,phosphorylation of p53 Ser15 and Ser46,p53 [3]; MDA MB-468,not significantly affected
same,main band of PARP (cleavage),PARP,uncleaved
same,"phosphorylation of pRb on all tested residues (Ser780, Ser795 and Ser807/811)",pRb [4],decrease
same,protein expression of endogenous pRb,pRb [4],decrease
